Measurements as given in patent publication US12116358B2, “Substituted indoles and methods of use thereof” (EPIZYME, INC., priority 2018, dated 2024).

These compounds were tested against T1, SETD2(1434-1711) (Homo sapiens, UniProt Q9BYW2) (assay: SETD2 (1434-1711) assay). Conditions: read-out: SETD2 (1434-1711).
T1 construct: SETD2 (1434-1711) Assay; catalogue N/A
T1 sequence (Q9BYW2 1434-1711): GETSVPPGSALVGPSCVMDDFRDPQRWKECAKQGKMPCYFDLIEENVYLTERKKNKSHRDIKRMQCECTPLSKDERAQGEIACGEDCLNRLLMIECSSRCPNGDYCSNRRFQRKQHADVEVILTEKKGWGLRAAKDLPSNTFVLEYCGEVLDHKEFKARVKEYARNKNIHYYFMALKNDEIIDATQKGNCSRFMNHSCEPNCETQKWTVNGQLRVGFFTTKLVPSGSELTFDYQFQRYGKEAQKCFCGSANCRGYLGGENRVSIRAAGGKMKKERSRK
Assay type: biochemical

| IC50 [µM] | SMILES |
| --- | --- |
| 83.4 | Cc1cccc2cc(C(=O)NCc3cn4ccnc4cn3)[nH]c12 [compound 710] |
| 86.4 | Cc1cccc2cc(C(=O)NC(C)c3ccn(C)n3)[nH]c12 (stereo not shown) [compound 712] |
| 91.2 | Cc1cccc([C@@H](C)NC(=O)c2cc3cccc(C)c3[nH]2)c1 [compound 713] |
| 98.9 | Cc1cccc2cc(C(=O)NC(C)c3cccc4ccccc34)[nH]c12 (stereo not shown) [compound 714] |
| > 100 | Cc1cccc2cc(C(=O)NCc3ccccc3N3CCCCC3)[nH]c12 [compound 716] |
| 103 | Cc1cccc2cc(C(=O)N3CCCc4ccccc4C3)[nH]c12 [compound 718] |
| 109 | Cc1cccc2cc(C(=O)NCC(O)c3c(F)cccc3F)[nH]c12 (stereo not shown) [compound 720] |
| 117 | Cc1cccc2cc(C(=O)Nc3cc(CN4CCOCC4)ccn3)[nH]c12 [compound 724] |
| 124 | Cc1cccc2cc(C(=O)N[C@H](c3ccccc3)C(F)(F)F)[nH]c12 [compound 726] |
| 129 | Cc1cccc2cc(C(=O)NCc3cnc[nH]3)[nH]c12 [compound 729] |
| 147 | Cc1cccc2cc(C(=O)NCc3cocn3)[nH]c12 [compound 733] |
| > 200 | Cc1cccc2cc(C(=O)NC3CCc4ccccc43)[nH]c12 (stereo not shown) [compound 748] |
| > 200 | Cc1cccc2cc(C(=O)NC(C)c3ccccc3)[nH]c12 (stereo not shown) [compound 749] |
| > 200 | Cc1cccc2cc(C(=O)NC3CCN(Cc4ccccc4)CC3)[nH]c12 [compound 752] |
| > 200 | Cc1cccc2cc(C(=O)NC3CCCc4ccccc43)[nH]c12 (stereo not shown) [compound 753] |
| > 200 | COc1ccc(C(O)CNC(=O)c2cc3cccc(C)c3[nH]2)cc1 (stereo not shown) [compound 754] |

| IC50 [µM] | SMILES |
| --- | --- |
| > 200 | Cc1cccc2cc(C(=O)N[C@H](CO)Cc3ccccc3)[nH]c12 [compound 765] |
| > 200 | Cc1cccc2cc(C(=O)NCc3ccccc3OCC3CC3)[nH]c12 [compound 767] |
| > 200 | COC(=O)CC(NC(=O)c1cc2cccc(C)c2[nH]1)c1ccccc1Br (stereo not shown) [compound 774] |
| > 200 | COC(=O)CC(NC(=O)c1cc2cccc(C)c2[nH]1)c1ccccc1 (stereo not shown) [compound 775] |
| > 200 | Cc1cccc2cc(C(=O)NCc3nc4ccccc4o3)[nH]c12 [compound 779] |
| > 200 | Cc1cccc2cc(C(=O)NC(C)c3ccccc3C(F)(F)F)[nH]c12 (stereo not shown) [compound 788] |
| > 200 | Cc1cccc2cc(C(=O)NC(C)c3cccc(C(F)(F)F)c3)[nH]c12 (stereo not shown) [compound 790] |
| > 200 | Cc1cccc2cc(C(=O)Nc3cccnc3)[nH]c12 [compound 795] |
| > 200 | Cc1cccc2cc(C(=O)Nc3cn4ccccc4n3)[nH]c12 [compound 796] |
| > 200 | Cc1ccccc1C(NC(=O)c1cc2cccc(C)c2[nH]1)C1CC1 (stereo not shown) [compound 801] |
| > 200 | Cc1cccc2cc(C(=O)Nc3ncc4ccccc4n3)[nH]c12 [compound 804] |
| > 200 | Cc1cccc2cc(C(=O)N3CCC(=O)c4ccccc4C3)[nH]c12 [compound 814] |
| > 200 | Cc1cccc2cc(C(=O)NCC(CN(C)C)c3ccccc3)[nH]c12 (stereo not shown) [compound 815] |
| > 200 | Cc1cccc2cc(C(=O)NC3CCC(c4ccccc4)NC(=O)C3)[nH]c12 (stereo not shown) [compound 816] |
| > 200 | Cc1cccc2cc(C(=O)NCCc3ccccc3-c3ccccc3)[nH]c12 [compound 818] |

The next lines start with the compound.

| SMILES | IC50 [µM] |
| --- | --- |
| CCc1c(C(=O)N[C@H]2CC[C@H](NC(=O)CCN)CC2)[nH]c2c(C)cccc12 [compound 711] | 85.9 |
| Cc1cccc2cc(C(=O)NC3CCNCC3)[nH]c12 [compound 715] | 98.9 |
| Cc1cccnc1C(NC(=O)c1cc2cccc(C(F)(F)F)c2[nH]1)C1CC1 (stereo not shown) [compound 717] | > 100 |
| Cc1cc(CNC(=O)c2cc3cccc(C)c3[nH]2)no1 [compound 719] | 107 |
| Cc1nc(CNC(=O)c2cc3cccc(C)c3[nH]2)c(C)o1 [compound 721] | 113 |
| Cc1cccnc1C(NC(=O)c1cc2cccc(C)c2[nH]1)C1CCNC1 (stereo not shown) [compound 722] | 116 |
| Cc1cnc(CNC(=O)c2cc3cccc(C)c3[nH]2)cn1 [compound 723] | 116 |
| Cc1cccc2cc(C(=O)NC(CCN(C)C)c3cccnc3)[nH]c12 (stereo not shown) [compound 725] | 123 |
| Cc1cccc2cc(C(=O)NC(c3cncc(CN(C)C)c3)C3CC3)[nH]c12 (stereo not shown) [compound 727] | 125 |
| Cc1cccnc1C(CCN(C)C)NC(=O)c1cc2cccc(C)c2[nH]1 (stereo not shown) [compound 728] | 127 |
| Cc1ccc(C)c2[nH]c(C(=O)N[C@H]3CC[C@H](N)CC3)cc12 [compound 730] | > 130 |
| Cc1cccc2cc(C(=O)NCC(O)C3CC3)[nH]c12 (stereo not shown) [compound 731] | 137 |
| Cc1nonc1CNC(=O)c1cc2cccc(C)c2[nH]1 [compound 732] | 137 |
| Cc1noc(C(C)NC(=O)c2cc3cccc(C)c3[nH]2)n1 (stereo not shown) [compound 735] | 165 |
| Cc1c(C(=O)N[C@H]2CC[C@H](N)CC2)[nH]c2c(C)cccc12 [compound 736] | 168 |
| Cc1cc(C)c2[nH]c(C(=O)N[C@H]3CC[C@H](NC(=O)CCN)CC3)cc2c1 [compound 738] | 179 |
| Cc1cccc2cc(C(=O)NCCN3CCOCC3)[nH]c12 [compound 746] | > 200 |
| Cc1cccc2cc(C(=O)NCC3CCCO3)[nH]c12 (stereo not shown) [compound 747] | > 200 |
| Cc1cccc2cc(C(=O)NCc3cccc(N4CCCCC4)c3)[nH]c12 [compound 750] | > 200 |

| SMILES | IC50 [µM] |
| --- | --- |
| Cc1cccc2cc(C(=O)NCc3cccc(S(=O)(=O)N4CCCCC4)c3)[nH]c12 [compound 751] | > 200 |
| Cc1cccc2cc(C(=O)NCc3ccc(CN4CCOCC4)cc3)[nH]c12 [compound 755] | > 200 |
| Cc1cc(C)c2[nH]c(C(=O)N[C@H]3CC[C@H](N)CC3)cc2c1 [compound 756] | > 200 |
| Cc1cccc2cc(C(=O)N3CCN(c4ncccc4C(N)=O)CC3)[nH]c12 [compound 757] | > 200 |
| Cc1cccc2cc(C(=O)NCc3ccc(S(=O)(=O)N4CCCCC4)cc3)[nH]c12 [compound 758] | > 200 |
| Cc1cccc2cc(C(=O)N[C@H]3C[C@@H](CO)C3)[nH]c12 [compound 759] | > 200 |
| Cc1cccc2cc(C(=O)N(C)[C@H]3CC[C@H](N)CC3)[nH]c12 [compound 761] | > 200 |
| Cc1cccc2cc(C(=O)N[C@H](CO)C(C)C)[nH]c12 [compound 763] | > 200 |
| COC(=O)CC(NC(=O)c1cc2cccc(C)c2[nH]1)c1ccc(Cl)cc1 (stereo not shown) [compound 764] | > 200 |
| Cc1cccc2cc(C(=O)NC(C)CNC(=O)OC(C)(C)C)[nH]c12 (stereo not shown) [compound 766] | > 200 |
| Cc1cccc2cc(C(=O)NCc3ncnn3C)[nH]c12 [compound 768] | > 200 |
| Cc1cccc2cc(C(=O)NC(C3CC3)C(F)(F)F)[nH]c12 (stereo not shown) [compound 769] | > 200 |
| Cc1cccc2cc(C(=O)N3CCC(C(N)=O)CC3)[nH]c12 [compound 771] | > 200 |
| COC(=O)CC(NC(=O)c1cc2cccc(C)c2[nH]1)c1ccc(C(C)C)cc1 (stereo not shown) [compound 773] | > 200 |
| COC(=O)CC(NC(=O)c1cc2cccc(C)c2[nH]1)c1ccc(F)cc1 (stereo not shown) [compound 776] | > 200 |
| COC(=O)CC(NC(=O)c1cc2cccc(C)c2[nH]1)c1ccc(OC)cc1 (stereo not shown) [compound 777] | > 200 |
| COC(=O)CC(NC(=O)c1cc2cccc(C)c2[nH]1)c1ccc(Br)cc1 (stereo not shown) [compound 778] | > 200 |
| Cc1cccc2cc(C(=O)N[C@H]3CC[C@H](C(F)(F)F)CC3)[nH]c12 [compound 780] | > 200 |
| Cc1cccc2cc(C(=O)N3CCN(CC(N)=O)CC3)[nH]c12 [compound 781] | > 200 |

| SMILES | IC50 [µM] |
| --- | --- |
| Cc1nc(CCNC(=O)c2cc3cccc(C)c3[nH]2)no1 [compound 782] | > 200 |
| COC(=O)CC(NC(=O)c1cc2cccc(C)c2[nH]1)c1ccc(C)cc1 (stereo not shown) [compound 783] | > 200 |
| Cc1cccc2cc(C(=O)NCC(O)C(F)F)[nH]c12 (stereo not shown) [compound 784] | > 200 |
| Cc1nc(C(C)NC(=O)c2cc3cccc(C)c3[nH]2)no1 (stereo not shown) [compound 785] | > 200 |
| Cc1cccc2cc(C(=O)N3CCCC3C(N)=O)[nH]c12 (stereo not shown) [compound 786] | > 200 |
| Cc1cccc2cc(C(=O)N3CCN(C(N)=O)CC3)[nH]c12 [compound 787] | > 200 |
| Cc1cccc2cc(C(=O)N[C@H]3CC[C@H](NC(=O)C(F)(F)F)CC3)[nH]c12 [compound 791] | > 200 |
| Cc1cccc2cc(C(=O)N3CCCC(N)C3)[nH]c12 (stereo not shown) [compound 794] | > 200 |
| CCOC(=O)[C@@H]1CCCC[C@H]1NC(=O)c1cc2cccc(C)c2[nH]1 [compound 797] | > 200 |
| Cc1cccc2cc(C(=O)N3CCCC(NC(=O)CCN)C3)[nH]c12 (stereo not shown) [compound 798] | > 200 |
| Cc1cccc2cc(C(=O)N3CCCC(N(C)C)C3)[nH]c12 (stereo not shown) [compound 799] | > 200 |
| CNC1CCCN(C(=O)c2cc3cccc(C)c3[nH]2)C1 (stereo not shown) [compound 800] | > 200 |
| Cc1cccnc1C(NC(=O)c1cc2cccc(C(C)C)c2[nH]1)C1CC1 (stereo not shown) [compound 802] | > 200 |
| CCc1cccc2cc(C(=O)NC(c3ccccn3)C3CC3)[nH]c12 (stereo not shown) [compound 803] | > 200 |
| CNC(=O)CC(NC(=O)c1cc2cccc(C)c2[nH]1)c1cccnc1 (stereo not shown) [compound 809] | > 200 |
| Cc1cccc2cc(C(=O)N3CCn4cncc4C3)[nH]c12 [compound 810] | > 200 |
| Cc1cccc2cc(C(=O)N3CCn4cnnc4C3)[nH]c12 [compound 811] | > 200 |
| Cc1cccc2cc(C(=O)N3CCn4ncnc4C3)[nH]c12 [compound 812] | > 200 |
| Cc1cccc2cc(C(=O)NC(c3ncccc3Cc3ccccc3)C3CC3)[nH]c12 (stereo not shown) [compound 817] | > 200 |
